Where a name gives a salt, the structure may show the parent alone.
Target: catalytic domain of human PARP14 (Homo sapiens (Human), UniProt Q460N5)
Test: Enzymatic assay for inhibition of PARP14 (DELFIA, auto-modification with biotin-NAD)
Type: biochemical
Settings: auto-modification of PARP14 by biotin-NAD, 50 nM PARP14, 3 μM biotin-NAD
Summary of the method: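 DELFIA auto-modification read-out: europium-streptavidin bound to biotin-NAD incorporated onto nickel-captured His-TEV PARP14 catalytic domain. Compound preincubated 30 min, then 50 nM enzyme with 3 μM biotin-NAD reacted 3 h, all at 25 °C, pH 8, then NAD quench. Percent inhibition normalized to rucaparib/DMSO wells, fitted (4- or 3-parameter) for IC50.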

Chain of catalytic domain of human PARP14 (Q460N5 1611-1801): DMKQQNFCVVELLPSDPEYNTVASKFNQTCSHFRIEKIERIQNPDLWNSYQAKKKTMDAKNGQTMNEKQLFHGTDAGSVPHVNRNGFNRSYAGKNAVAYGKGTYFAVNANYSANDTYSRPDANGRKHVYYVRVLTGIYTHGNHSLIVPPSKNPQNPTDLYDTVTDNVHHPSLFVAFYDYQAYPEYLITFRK

Row | IC50 | SMILES
1 | < 1000 nM | O=c1[nH]c(CSC2CCOCC2)nc2cc(OCC3CCOCC3)cc(F)c12 [Example 236, 5-Fluoro-7-((tetrahydro-2H-pyran-4-yl)methoxy)-2-(((tetrahydro-2H-pyran-4-yl)thio)methyl)quinazolin-4(3H)-one]
2 | < 1000 nM | Cc1cc(OCC2CCC2)cc2nc(CSC3CCOCC3)[nH]c(=O)c12 [Example 237, 7-(Cyclobutylmethoxy)-5-methyl-2-(((tetrahydro-2H-pyran-4-yl)thio)methyl)quinazolin-4(3H)-one]
3 | < 1000 nM | O=c1[nH]c(CSC2CCOCC2)nc2cc(OCC3CCOC3)cc(F)c12 (centres unmarked) [Example 238, 5-Fluoro-2-(((tetrahydro-2H-pyran-4-yl)thio)methyl)-7-((tetrahydrofuran-3-yl)methoxy)quinazolin-4(3H)-one]
4 | < 1000 nM | O=c1[nH]c(CSC2CCOCC2)nc2cc(OC[C@@H]3CCOC3)cc(F)c12 [Example 239a, (R)-5-fluoro-2-(((tetrahydro-2H-pyran-4-yl)thio)methyl)-7-((tetrahydrofuran-3-yl)methoxy)quinazolin-4(3H)-one]
5 | < 1000 nM | O=c1[nH]c(CSC2CCOCC2)nc2cc(OC[C@H]3CCOC3)cc(F)c12 [Example 239b, (S)-5-fluoro-2-(((tetrahydro-2H-pyran-4-yl)thio)methyl)-7-((tetrahydrofuran-3-yl)methoxy)quinazolin-4(3H)-one]
6 | 1000 to 10000 nM | O=c1[nH]c(CSC2CCOCC2)nc2cc(NC3CCOCC3)c(F)cc12 [Example 245, 6-Fluoro-7-((tetrahydro-2H-pyran-4-yl)amino)-2-(((tetrahydro-2H-pyran-4-yl)thio)methyl)quinazolin-4(3H)-one]
7 | < 1000 nM | CN1CCC(SCc2nc3cc(NC4CCCC4)cc(F)c3c(=O)[nH]2)CC1 [Example 246, 7-(Cyclopentylamino)-5-fluoro-2-(((1-methylpiperidin-4-yl)thio)methyl)quinazolin-4(3H)-one]
8 | < 1000 nM | O=c1[nH]c(CSC2CCOCC2)nc2cc(NC3CCCCC3)cc(F)c12 [Example 247, 7-(Cyclohexylamino)-5-fluoro-2-(((tetrahydro-2H-pyran-4-yl)thio)methyl)quinazolin-4(3H)-one]
9 | < 1000 nM | O=c1[nH]c(CSC2CCNCC2)nc2cc(NC3CCCCC3)cc(F)c12 [Example 248, 7-(Cyclohexylamino)-5-fluoro-2-((piperidin-4-ylthio)methyl)quinazolin-4(3H)-one]

Row | SMILES | IC50
10 | O=c1[nH]c(CSC2CCNCC2)nc2cc(NC3CCCC3)c(F)c(F)c12 [Example 232, 7-(Cyclopentylamino)-5,6-difluoro-2-((piperidin-4-ylthio)methyl)quinazolin-4(3H)-one Hydrochloride] | < 1000 nM
11 | O=c1[nH]c(CSC2CCOCC2)nc2cc(N[C@H]3CC[C@H](N4CCOCC4)CC3)cc(F)c12 [Example 233, 5-Fluoro-7-((trans-4-morpholinocyclohexyl)amino)-2-(((tetrahydro-2H-pyran-4-yl)thio)methyl)quinazolin-4(3H)-one Trifluoroacetate] | < 1000 nM
12 | O=c1[nH]c(CSC2CCOCC2)nc2cc(N[C@H]3CC[C@@H](N4CCOCC4)CC3)cc(F)c12 [Example 234, 5-Fluoro-7-((cis-4-morpholinocyclohexyl)amino)-2-(((tetrahydro-2H-pyran-4-yl)thio)methyl)quinazolin-4(3H)-one Trifluoroacetate] | 1000 to 10000 nM
13 | NC[C@]1(F)CC[C@@H](SCc2nc3cc(NC4CCCC4)cc(F)c3c(=O)[nH]2)CC1 [Example 243, 2-(((trans-4-(Aminomethyl)-4-fluorocyclohexyl)thio)methyl)-7-(cyclopentylamino)-5-fluoroquinazolin-4(3H)-one Trifluoroacetate] | < 1000 nM
14 | NC[C@]1(F)CC[C@H](SCc2nc3cc(NC4CCCC4)cc(F)c3c(=O)[nH]2)CC1 [Example 244, 2-(((cis-4-(Aminomethyl)-4-fluorocyclohexyl)thio)methyl)-7-(cyclopentylamino)-5-fluoroquinazolin-4(3H)-one Trifluoroacetate] | < 1000 nM
